PubChem BioAssay AID1963428 (Molecular Pharmacology Branch, DTP, NCI, 2024)
pIC50: −log10 of the molar value.

System: 171881-019-R-J1-PDC complex spheroid growth, % test/control
Assay: Anticancer human tumor 171881-019-R-J1-PDC patient-derived invasive breast carcinoma cell line growth inhibition [Asc]
Settings: for pIC50: curve of first compound; for viability, T/C: stronger effect = lower value
Summary of the method: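 Tumor cells were grown as complex spheroids with human endothelial cells (HUVEC) and human mesenchymal stem cells as stroma. Agents were tested alone and in combination, in half-log steps down from the clinical Cmax, or from 10 microM where Cmax was unknown.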
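Throughout, for viability, T/C: spheroids exposed to compounds for 7 days.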

## COc1c(OCCCN2CCOCC2)ccc2c3n(c(=NC(=O)c4cnc(N)nc4)nc12)CCN3 + CCN1C(C(=O)NC23CCC(C(=O)O)(CC2)CC3)C(c2cccc(Cl)c2F)C2(C(=O)Nc3cc(Cl)ccc32)C12CCCCC2
Second compound 0.03 µM
  pIC50: 7.45
Second compound 0.0949 µM
  pIC50: 7.44
Second compound 0.3 µM
  pIC50: 7.44
Second compound 0.949 µM
  pIC50: 7.48
Second compound 3 µM
  pIC50: 7.53
Second compound 0.03 µM, first compound 0.00316 µM
  viability, T/C: 158%
Second compound 0.03 µM, first compound 0.01 µM
  viability, T/C: 118%
Second compound 0.03 µM, first compound 0.0316 µM
  viability, T/C: 48.1%
Second compound 0.03 µM, first compound 0.1 µM
  viability, T/C: 25.7%
Second compound 0.03 µM, first compound 0.316 µM
  viability, T/C: 3.58%
Second compound 0.03 µM, first compound 1 µM
  viability, T/C: 1.48%
Second compound 0.0949 µM, first compound 0.00316 µM
  viability, T/C: 182%
Second compound 0.0949 µM, first compound 0.01 µM
  viability, T/C: 141%
Second compound 0.0949 µM, first compound 0.0316 µM
  viability, T/C: 55%
Second compound 0.0949 µM, first compound 0.1 µM
  viability, T/C: 13.6%
Second compound 0.0949 µM, first compound 0.316 µM
  viability, T/C: 3.64%
Second compound 0.0949 µM, first compound 1 µM
  viability, T/C: 1.16%
Second compound 0.3 µM, first compound 0.00316 µM
  viability, T/C: 143%
Second compound 0.3 µM, first compound 0.01 µM
  viability, T/C: 133%
Second compound 0.3 µM, first compound 0.0316 µM
  viability, T/C: 53.8%
Second compound 0.3 µM, first compound 0.1 µM
  viability, T/C: 14.6%
Second compound 0.3 µM, first compound 0.316 µM
  viability, T/C: 3.71%
Second compound 0.3 µM, first compound 1 µM
  viability, T/C: 0.99%
Second compound 0.949 µM, first compound 0.00316 µM
  viability, T/C: 159%
Second compound 0.949 µM, first compound 0.01 µM
  viability, T/C: 126%
Second compound 0.949 µM, first compound 0.0316 µM
  viability, T/C: 50.9%
Second compound 0.949 µM, first compound 0.1 µM
  viability, T/C: 12.8%
Second compound 0.949 µM, first compound 0.316 µM
  viability, T/C: 3.5%
Second compound 0.949 µM, first compound 1 µM
  viability, T/C: 1.21%
Second compound 3 µM, first compound 0.00316 µM
  viability, T/C: 171%
Second compound 3 µM, first compound 0.01 µM
  viability, T/C: 122%
Second compound 3 µM, first compound 0.0316 µM
  viability, T/C: 46.1%
Second compound 3 µM, first compound 0.1 µM
  viability, T/C: 9.69%
Second compound 3 µM, first compound 0.316 µM
  viability, T/C: 2.19%
Second compound 3 µM, first compound 1 µM
  viability, T/C: 1.28%
